Data on one molecule can be found in patent publication US11345659B2, “Pipecolic esters for inhibition of the proteasome” (THE BOARD OF REGENTS OF THE UNIVERSY OF TEXAS SYSTEM, priority 2018, dated 2022).

For experiment [1], the target named is T1, native human 20 S core proteasome (Homo sapiens, UniProt P25787+P25789).
T1 construct: purified from erythrocytes; purchased Enzo Life Sciences, Inc. (Farmingdale, N.Y.); host or cells: human erythrocytes
As to the kind of experiment: AFM imaging of gate conformers of 20 S proteasome. As for the experimental part: The single molecule imaging of the 20 S proteasome was carried out as previously described, with a scanner E of the Multimode Nanoscope IIIa (Bruker Inc) (Gaczynska and Osmulski (2009) Atomic Force Microscopy as a Tool to Study the Proteasome Assemblies; Osmulski et al. (2009) Structure 17(8): 1137-1147. Available from http://www.scopus.com/inward/record.url?eid=2-s2.0-68149164657&partnerID=40&md5=dc5e413998472b20d822db9458de1955). In short, the proteasomes were deposited and electrostatically attached to a muscovite mica substrate, covered with imaging buffer (5 mM Tris/HCl, pH 7) and scanned in tapping mode in fluid using cantilevers with the spring constant of 0.35 N/m from the SNL (Sharp Nitride Lever) probes (Bruker Inc.) tuned to 9-10 kHz. Gentle scanning conditions with the amplitude setpoint in the range of 1.5-2.0V, drive voltage of 300-500 mV and 3.05 Hz scanning rate were used. Scans of 1 μm^2 fields (512×512 pixels) contained height-mode images of several dozens of top-view (“standing”) 20 S proteasome molecules. The gate status was deduced from a profile of raw height values of pixels measured by a probe scanning across the single proteasome particles. The proteasome a face that included the gate was completely rendered by a six-pixel (11-12 nm) scan-line. If the α face scan-line presented a central dip (a local minimum), the particle was classified as containing the open gate. If a plot of height values presented a concave function without a local minimum, the particle was classified as an intermediate conformer. If the function was convex, the particle was classified as containing the closed gate. The “events” of gate opening/closing were analyzed for scans of distinct particles as well as multiple scans of the same particles.
Next, AFM imaging of the native human 20 S core proteasome treated with 10 μM compound 3 was performed to get insight into the putative effects of the compound on the conformation of the α face in the single molecule fashion. In the in-liquid tapping mode AFM method, the outer shape of the α face is monitored by the ultra-sharp probe interacting […] with the protein molecule mostly by van der Waals forces (Gaczynska and Osmulski (2008) Methods Cell Biol. 90: 39-60). […] Treatment with 10 μM of rapamycin shifted the conformational equilibrium of the 20 S core from about 75% to about 50% of closed-gate molecules (Osmulski and Gaczynska (2013) Molecular pharmacology 84: 104-113). An apparent similar shift was induced by compound 3, when the partition of closed conformers dropped from 73±1% (n=4 experiments, 90 events of gate opening/closing) to 45±11% (n=6 experiments, 218 events). Moreover, upon additional refined analysis of “not closed” conformers, it was possible to distinguish the presumably open-gate forms from intermediate forms.
The putative binding site of compound 3 in the α ring pocket, identified by molecular modeling (FIG. 2) and biochemical data (FIG. 4), led to the examination of whether the inhibitor-induced conformational changes in a face gate dynamics. For this purpose, imaging of native 20 S proteasomes was employed using a previously established method of atomic force microscopy (AFM). In this method, topography of the α face of buffer-submerged proteasomes that stand on their opposite a face is rendered in real time by the ultra-sharp probe. A tip of the probe interacts with the molecules mostly by van der Waals forces (Gaczynska and Osmulski (2011) Methods Mol. Biol. 736: 117-32). The distribution of conformation types of a face is routinely accessed with sequential scans of fields of multiply randomly distributed proteasomes. Alternatively, consecutive single scan lines representing the gate status of individual particles are collected. The particles are classified as closed-gate if their a face is smooth and regularly concave (FIG. 5). […]

The target in another experiment is immunoproteasomes (Homo sapiens, UniProt P25787+P25789). As to the kind of experiment: Activity of housekeeping and immunoproteasomes activated with Rpt5-derived peptide. The format is biochemical. An excerpt: Immuno and housekeeping forms are serving distinct physiological functions. The clinically used competitive inhibitors do target them with a similar efficacy; however such outcome is not obvious with allosteric inhibitors such as compound 3. Referring to FIG. 11, the relative activities of the proteasome forms are shown, activated with the Rpt5-derived peptide and treated with compound 3.

Experiment [2] has as its system human prostate cancer PC3 cells. As to the kind of experiment: Efficacy study in nude mice xenografted with PC3 cells. The format is in vivo. The settings on record: 10 mg/kg intra-tumorally. As for the experimental part: The efficacy study was performed with mice xenografted with human cultured androgen-resistant prostate cancer PC3 cells. To assure efficient monitoring of tumor growth and dissemination, the cells expressing green fluorescent protein (GFP) and luciferine were used for xenografting (Bioware Brite PC3-RedFLuc-GFP). The study involved […] nude mice. Tumor-growing mice were treated intra-tumorally (IT) with the vehicle (dimethylsulfoxide; DMSO; 8 control mice) or with 10 mg/kg of compound 3 (10 mice). Injections were carried on Mondays, Wednesdays, and Fridays. To assure accurate assessment of the tumor size, at the time of first and last treatments the mice were injected with luciferine (substrate for luciferase) and the total intensity of fluorescent product was recorded by the Xenogen IVIS Spectrum small animal imager. […] The color scale from blue (lowest) through green, yellow and red (highest) corresponds to the intensity of fluorescence emitted from the tumor and thus represents the total mass of live cancer cells. Referring to FIG. 8 right panel, median ratios of last-to-first total tumor fluorescence values are shown. Apparently, the median tumor size in controls increased nearly three-fold (ratio=3.05), whereas in the treated cohort a tumor shrinkage was recorded instead (ratio=0.62).

As to `COc1cc(CCCOC(=O)[C@@H]2CCCCN2C(=O)OCc2ccccc2)cc(OC)c1OC` [Compound 3, 1-benzyl 2-(3-(3,4,5-trimethoxyphenyl)propyl) (S)-piperidine-1,2-dicarboxylate], the “abundance of gate conformers” value in experiment [1] (100 nM) is “increased the abundance of closed-gate conformers and rendered the open-gate forms nearly undetectable”. The “contribution of open-gate proteasomes” value in experiment [1] (1 μM) is recorded as “only about a half of that observed in the control particles”. In experiment [1] (10 μM), the “particles in closed-gate conformation” value is “less than a half of the particles were in the closed-gate conformation”. In addition, the “contribution of open-gate and intermediate forms” value in experiment [1] (10 μM, compared to control) was “increased about twice”. Moreover, in experiment [1] (10 μM, n=6 experiments, 218 events, control 73±1%), the “partition of closed conformers” value is reported as 45±11%. Besides, in experiment [1] (10 μM, versus control), the “number of intermediate forms” value is “increased significantly” and the “partition of open forms” value is given as “remained remarkably steady”. At immunoproteasomes, the “inhibition of housekeeping versus immunoproteasomes” value is “inhibits both housekeeping and immunoproteasomes with similar efficacy”. Besides, the “growth of xenografted tumor” value in experiment [2] was “attenuated the growth of xenografted tumor”. The “median ratio of last-to-first total tumor fluorescence” value in experiment [2] (Mon/Wed/Fri, control ratio 3.05) came to 0.62.
